Test results: BindingDB's records for doi:10.1007/s00044-007-9043-6 (Central Drug Research Institute, 2008)

Molecular target: T1, Tyrosine-protein phosphatase non-receptor type 1 (Homo sapiens, UniProt P18031)
T1 sequence (P18031 whole entry): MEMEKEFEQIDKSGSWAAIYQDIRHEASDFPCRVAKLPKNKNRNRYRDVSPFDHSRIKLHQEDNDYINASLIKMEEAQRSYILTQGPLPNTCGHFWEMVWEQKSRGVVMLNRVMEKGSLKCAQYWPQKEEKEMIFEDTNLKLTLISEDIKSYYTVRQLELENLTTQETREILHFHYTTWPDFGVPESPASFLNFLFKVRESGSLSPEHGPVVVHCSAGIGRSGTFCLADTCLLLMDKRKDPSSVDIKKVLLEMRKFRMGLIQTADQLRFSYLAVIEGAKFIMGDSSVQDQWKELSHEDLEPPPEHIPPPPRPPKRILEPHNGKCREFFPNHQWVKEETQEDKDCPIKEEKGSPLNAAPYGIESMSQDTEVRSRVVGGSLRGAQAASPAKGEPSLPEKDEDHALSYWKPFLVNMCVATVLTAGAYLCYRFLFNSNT
Test: In Vitro Assay
Details: pH 7
Procedure: The effect of the test compounds on PTP1B was studied by preincubating the test compound with enzyme in the reaction system for 10 min and determining the residual enzyme activity according to the Goldstein method.

## COC(=O)C1C(c2ccc(C=O)cc2OC)=NOC1c1ccccc1 (stereo not given) [PTP1B Inhibitor, 15]
  IC50: 165 µM
  Ki: 135 µM

## COc1cc(C=O)ccc1C1=NOC(n2ccnc2)C1 (stereo not given) [PTP1B Inhibitor, 14]
  IC50: 88 µM
  Ki: 63 µM

## COc1cc(C=O)ccc1C1=NOC(c2ccncc2)C1 (stereo not given) [PTP1B Inhibitor, 13]
  IC50: 275 µM
  Ki: 150 µM

## COc1cc(C=O)ccc1C1=NOC(c2ccccn2)C1 (stereo not given) [PTP1B Inhibitor, 12]
  IC50: 485 µM
  Ki: 170 µM

## COc1cc(C=O)ccc1C1=NOC(c2ccccc2)C1 (stereo not given) [PTP1B Inhibitor, 10]
  IC50: 69 µM
  Ki: 48 µM

## COc1ccc(C2CC(c3ccc(C=O)cc3OC)=NO2)cc1 (stereo not given) [PTP1B Inhibitor, 11]
  IC50: 67 µM
  Ki: 48 µM

## CC(=O)Oc1ccc(C2=NOC(c3ccccc3)C2)c(OC(C)=O)c1 (stereo not given) [PTP1B Inhibitor, 19]
  IC50: 62.7 µM
  Ki: 25 µM

## COc1c(C2=NOC(c3ccccc3)C2)ccc2c1C=CC(C)(C)O2 (stereo not given) [PTP1B Inhibitor, 5]
  IC50: 70 µM
  Ki: 30 µM

## COc1ccc(C2CC(c3ccc4c(c3OC)C=CC(C)(C)O4)=NO2)cc1 (stereo not given) [PTP1B Inhibitor, 6]
  IC50: 91 µM
  Ki: 56 µM

## COc1c(C2=NOC(c3ccccn3)C2)ccc2c1C=CC(C)(C)O2 (stereo not given) [PTP1B Inhibitor, 7]
  IC50: 87 µM
  Ki: 34 µM
